Data from ChEMBL document CHEMBL3301562, “MMV Box screening against Plasmodium falciparum protein kinases and aminoacyl tRNA synthetases”.
pIC50: −log10 of the molar value.

Columns and labels:
Assay type in all cases: functional
[1] = biological target: T1, Mitogen-activated protein kinase (Plasmodium falciparum, UniProt Q25917); assay: Final concentrations were 1 uM ATP, 0.5 mM DTT, 1 mM MgCl2, 0.5 mg/mL BSA, and 10 ug/ml MAP2 in a buffer of 50 mM HEPES (pH 7.0). 0.5 mg/mL histone III-S served as the substrate (13); 100 uM AMP-PNP, an ATP analog, was used as a control inhibitor. Incubation time was 4 hours.
T1 sequence (Q25917 whole entry): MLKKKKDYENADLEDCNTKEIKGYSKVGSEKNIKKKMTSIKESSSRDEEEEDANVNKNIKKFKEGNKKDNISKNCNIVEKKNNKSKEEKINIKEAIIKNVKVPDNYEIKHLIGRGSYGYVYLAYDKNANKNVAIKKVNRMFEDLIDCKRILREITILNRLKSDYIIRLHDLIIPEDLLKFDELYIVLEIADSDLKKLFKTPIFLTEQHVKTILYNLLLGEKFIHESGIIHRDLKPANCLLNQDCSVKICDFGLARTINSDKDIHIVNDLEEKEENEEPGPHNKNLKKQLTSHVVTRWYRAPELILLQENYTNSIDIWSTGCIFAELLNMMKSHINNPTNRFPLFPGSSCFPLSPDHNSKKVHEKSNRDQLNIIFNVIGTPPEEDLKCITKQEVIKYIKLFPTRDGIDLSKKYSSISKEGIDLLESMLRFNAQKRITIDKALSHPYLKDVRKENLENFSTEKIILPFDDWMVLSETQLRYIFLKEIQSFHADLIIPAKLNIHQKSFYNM

Proline--tRNA ligase = biological target: T2, Proline--tRNA ligase (Plasmodium falciparum (isolate 3D7), UniProt Q8I5R7); assay: MMV: ProRS recombinant Plasmodium falciparum Prolyl-tRNA-synthetase, assay with yeast tRNA, ATP, and proline and 3 uM MMV malaria box compound, assay read out with kinase glo as % inhibition.
T2 sequence (Q8I5R7 whole entry): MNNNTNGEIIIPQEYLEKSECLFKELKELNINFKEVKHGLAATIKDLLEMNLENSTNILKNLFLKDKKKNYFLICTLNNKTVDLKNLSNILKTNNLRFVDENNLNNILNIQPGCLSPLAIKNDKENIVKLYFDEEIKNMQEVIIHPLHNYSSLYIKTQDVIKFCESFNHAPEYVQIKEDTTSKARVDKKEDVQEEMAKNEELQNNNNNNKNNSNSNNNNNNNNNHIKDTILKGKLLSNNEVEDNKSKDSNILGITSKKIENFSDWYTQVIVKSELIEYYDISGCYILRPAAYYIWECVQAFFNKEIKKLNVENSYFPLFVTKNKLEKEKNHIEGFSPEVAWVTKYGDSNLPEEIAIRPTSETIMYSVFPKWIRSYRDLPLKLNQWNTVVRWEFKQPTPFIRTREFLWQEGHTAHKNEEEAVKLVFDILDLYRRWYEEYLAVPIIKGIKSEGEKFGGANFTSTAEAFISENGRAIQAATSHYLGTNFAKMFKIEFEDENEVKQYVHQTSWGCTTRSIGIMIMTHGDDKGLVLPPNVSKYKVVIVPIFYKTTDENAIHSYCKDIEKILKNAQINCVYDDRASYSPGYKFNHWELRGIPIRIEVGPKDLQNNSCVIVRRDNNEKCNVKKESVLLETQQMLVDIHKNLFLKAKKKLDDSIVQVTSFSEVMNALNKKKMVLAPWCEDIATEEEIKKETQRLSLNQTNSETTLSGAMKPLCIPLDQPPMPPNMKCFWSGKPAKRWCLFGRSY

Lysine--tRNA ligase = Lysine--tRNA ligase (Plasmodium falciparum (isolate 3D7), UniProt Q8IDJ8); assay: MMV: KRS recombinant Plasmodium falciparum Lysyl-tRNA-synthetase, assay with yeast tRNA, ATP, and lysine and 3 uM MMV malaria box compound, assay read out with kinase glo as % inhibition.
[2] = biological target: T3, Cdk-related protein kinase 6 (Plasmodium falciparum, UniProt O77239); assay: Final concentrations were 1.5 uM ATP, 5 mM MnCl2, and 15 ug/ml PK6 in a buffer of 100 mM Tris-HCl (pH 7.5). 50 ug/mL MBP was provided as the substrate; 10 uM staurosporine was used as a control inhibitor. Incubation time was 3 hours and 40 minutes.The catalytic activity of each kinase was considered proportional to ATP consumed, as determined from measurements of residual [ATP] with the luciferase-based reagent Kinase-Glo (Promega) following incubation. Luminescence (proportional to residual [ATP]) was measured on the plate readers FLx800 (BioTek Instruments, Winooski, VT, USA) and MicroBeta2.
T3 sequence (O77239 whole entry): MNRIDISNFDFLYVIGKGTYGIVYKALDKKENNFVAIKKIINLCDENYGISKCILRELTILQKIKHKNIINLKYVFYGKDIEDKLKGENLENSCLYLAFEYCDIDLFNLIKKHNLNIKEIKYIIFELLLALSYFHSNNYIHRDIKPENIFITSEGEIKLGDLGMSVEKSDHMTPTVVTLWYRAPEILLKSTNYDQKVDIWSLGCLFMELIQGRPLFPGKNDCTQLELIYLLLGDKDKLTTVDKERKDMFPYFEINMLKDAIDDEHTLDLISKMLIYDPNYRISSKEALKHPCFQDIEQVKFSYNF

[3] = biological target: T4, Putative uncharacterized protein pk7 (Plasmodium falciparum, UniProt O96214); assay: Final concentrations were 1 uM ATP, 2 mM DTT, 20 mM MgCl2, 2 mM MnCl2, 0.01% BSA, and 6 ug/ml PK7, in a buffer of 20 mM Tris-HCl (pH 7.5). The enzyme itself was the only substrate present (since autophosphorylation occurs); 100 uM 1NA-PP1 was used as a control inhibitor. Incubation time was 3 hours.
T4 sequence (O96214 whole entry): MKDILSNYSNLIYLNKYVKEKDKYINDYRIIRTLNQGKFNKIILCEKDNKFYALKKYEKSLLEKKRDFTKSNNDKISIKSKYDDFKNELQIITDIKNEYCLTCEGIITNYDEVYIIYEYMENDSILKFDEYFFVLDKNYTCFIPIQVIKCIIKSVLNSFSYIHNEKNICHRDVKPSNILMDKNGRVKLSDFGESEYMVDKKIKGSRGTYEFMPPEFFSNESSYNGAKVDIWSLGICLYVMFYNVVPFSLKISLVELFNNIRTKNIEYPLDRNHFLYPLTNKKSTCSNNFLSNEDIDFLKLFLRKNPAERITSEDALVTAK

[4] = biological target: Calcium-dependent protein kinase 1 (Plasmodium falciparum, UniProt P62344); assay: MMV: CDPK1 Protein kinase inhibition assay using recombinant PfCDPK1, syntide 2 peptide substrate, ATP and KinaseGlo to measure % inhibition at 1 uM MMV box compound.
[5] = biological target: T5, Calcium-dependent protein kinase 4 (Plasmodium falciparum (isolate 3D7), UniProt Q8IBS5); assay: MMV: CDPK4 Protein kinase inhibition assay using recombinant PfCDPK4, syntide2 peptide substrate, ATP and KinaseGlo to measure % inhibition at 1 uM MMV box compound.
T5 sequence (Q8IBS5 whole entry): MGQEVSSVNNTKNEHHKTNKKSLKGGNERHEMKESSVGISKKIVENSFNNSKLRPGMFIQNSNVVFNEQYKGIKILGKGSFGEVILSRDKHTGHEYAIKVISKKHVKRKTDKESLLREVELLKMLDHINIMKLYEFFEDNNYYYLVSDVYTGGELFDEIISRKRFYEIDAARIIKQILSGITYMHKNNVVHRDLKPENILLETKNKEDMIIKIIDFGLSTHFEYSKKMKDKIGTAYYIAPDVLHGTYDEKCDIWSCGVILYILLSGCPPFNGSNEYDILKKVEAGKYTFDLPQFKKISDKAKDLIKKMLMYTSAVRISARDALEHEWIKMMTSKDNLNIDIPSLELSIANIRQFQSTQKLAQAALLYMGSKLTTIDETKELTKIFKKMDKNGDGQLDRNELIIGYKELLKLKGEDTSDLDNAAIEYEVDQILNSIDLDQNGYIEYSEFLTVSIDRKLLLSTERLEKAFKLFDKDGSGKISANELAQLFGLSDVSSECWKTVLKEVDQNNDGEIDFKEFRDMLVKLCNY

Chain of Lysine--tRNA ligase (Q8IDJ8 whole entry): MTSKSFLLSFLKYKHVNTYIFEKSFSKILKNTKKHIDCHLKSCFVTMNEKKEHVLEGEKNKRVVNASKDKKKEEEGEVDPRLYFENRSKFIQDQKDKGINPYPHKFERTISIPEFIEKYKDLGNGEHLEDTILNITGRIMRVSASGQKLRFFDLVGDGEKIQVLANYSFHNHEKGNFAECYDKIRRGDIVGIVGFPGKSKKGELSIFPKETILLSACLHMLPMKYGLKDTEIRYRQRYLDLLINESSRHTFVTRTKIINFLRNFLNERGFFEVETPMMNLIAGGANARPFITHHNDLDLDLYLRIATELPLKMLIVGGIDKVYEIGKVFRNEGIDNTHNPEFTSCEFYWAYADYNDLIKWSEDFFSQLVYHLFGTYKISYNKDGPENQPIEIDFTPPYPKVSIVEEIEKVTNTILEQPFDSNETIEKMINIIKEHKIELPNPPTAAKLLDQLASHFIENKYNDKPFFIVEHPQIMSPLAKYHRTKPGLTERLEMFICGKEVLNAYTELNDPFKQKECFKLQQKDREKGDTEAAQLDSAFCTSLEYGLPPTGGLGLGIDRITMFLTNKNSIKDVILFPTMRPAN
Chain of Calcium-dependent protein kinase 1 (P62344 whole entry): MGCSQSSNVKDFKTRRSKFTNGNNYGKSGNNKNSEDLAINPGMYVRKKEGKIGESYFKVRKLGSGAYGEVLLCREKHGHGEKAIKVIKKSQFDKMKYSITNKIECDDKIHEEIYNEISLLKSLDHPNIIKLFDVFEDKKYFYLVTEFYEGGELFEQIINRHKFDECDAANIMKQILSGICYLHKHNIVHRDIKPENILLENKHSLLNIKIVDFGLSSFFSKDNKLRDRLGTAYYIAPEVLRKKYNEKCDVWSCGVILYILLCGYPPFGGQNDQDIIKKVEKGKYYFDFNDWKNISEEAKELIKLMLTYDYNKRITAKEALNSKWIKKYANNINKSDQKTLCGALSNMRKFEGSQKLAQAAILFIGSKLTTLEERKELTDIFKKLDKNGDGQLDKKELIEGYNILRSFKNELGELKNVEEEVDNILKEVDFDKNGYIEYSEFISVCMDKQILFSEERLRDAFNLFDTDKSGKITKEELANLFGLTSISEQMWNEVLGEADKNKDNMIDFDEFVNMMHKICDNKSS

Structure (SMILES)	pIC50 [1]	pIC50 (Proline--tRNA ligase)	pIC50 (Lysine--tRNA ligase)	pIC50 [2]	pIC50 [3]	pIC50 [4]	pIC50 [5]
CN(C)CCCNc1c2ccccc2nc2ccccc12	< 6.00	< 5.60	< 5.60	< 6.00	< 6.00	< 6.00	< 6.00
COc1ccc(-c2c(C)nn3c(N)c(C#N)cnc23)cc1OC	< 6.00	< 5.60	< 5.60	< 6.00	< 6.00	< 6.00	< 6.00
CSC1=NC(=Nc2c(C)cccc2C)C2(CCC(C(C)(C)C)CC2)N1c1ccc(Cl)cc1 (configuration not stated)	< 6.00	< 5.60	< 5.60	< 6.00	< 6.00	< 6.00	< 6.00
COc1ccc(-c2cc3c(SCC(=O)Nc4cc(C(F)(F)F)ccc4Cl)nccn3n2)cc1	< 6.00	< 5.60	< 5.60	< 6.00	< 6.00	< 6.00	< 6.00
Cc1cc(Nc2ccc3ccccc3c2)n2ncnc2n1	< 6.00	< 5.60	< 5.60	< 6.00	< 6.00	< 6.00	< 6.00
COc1ccc(-c2nc(NC(=O)CS(=O)(=O)c3ccc(F)cc3)sc2C)cc1	< 6.00	< 5.60	< 5.60	< 6.00	< 6.00	< 6.00	< 6.00
O=C(O)C1Cc2c([nH]c3ccccc23)C(c2ccc(Cl)cc2Cl)N1 (configuration not stated)	< 6.00	< 5.60	< 5.60	< 6.00	< 6.00	< 6.00	< 6.00
COc1cccc(NC(=O)[C@H](C(C)C)n2c(=O)[nH]c3ccccc3c2=O)c1	< 6.00	< 5.60	< 5.60	< 6.00	< 6.00	< 6.00	< 6.00
CCOC(=O)c1cn(CC)c2cc(N(C)CCc3ccc(OC)c(OC)c3)c(F)cc2c1=O	< 6.00	< 5.60	< 5.60	< 6.00	< 6.00	< 6.00	< 6.00
CC(C)(C)c1ccc(O)c(CNC2CCCCC2)c1	< 6.00	< 5.60	< 5.60	< 6.00	< 6.00	< 6.00	< 6.00
O=[N+]([O-])c1ccc(C=NNc2nc3ccccc3[nH]2)cc1	< 6.00	< 5.60	< 5.60	< 6.00	< 6.00	< 6.00	< 6.00
COc1ccc(C2=C(c3ccc(OC)cc3)C3(c4ccccc4)C(=O)C2(c2ccccc2)C2C(=O)N(c4ccc(C)cc4)C(=O)C23)cc1 (configuration not stated)	< 6.00	< 5.60	< 5.60	< 6.00	< 6.00	< 6.00	< 6.00
CCOC(=O)c1c(NC(=O)c2ccccc2)sc2c(O)c(CN(CC)CC)ccc12	< 6.00	< 5.60	< 5.60	< 6.00	< 6.00	< 6.00	< 6.00
COc1ccc(C=C2SC(=N)N(c3ccccc3OC)C2=O)cc1	< 6.00	< 5.60	< 5.60	< 6.00	< 6.00	< 6.00	< 6.00
COc1ccc(NC(=O)C2c3ccccc3C(=O)N(CC(C)C)C2c2cccs2)cc1Cl (configuration not stated)	< 6.00	< 5.60	< 5.60	< 6.00	< 6.00	< 6.00	< 6.00
COc1ccccc1CNC(=O)CCn1c(=O)[nH]c2ccccc2c1=O	< 6.00	< 5.60	< 5.60	< 6.00	< 6.00	< 6.00	< 6.00
Oc1ccccc1CNCC12CC3CC(CC(C3)C1)C2	< 6.00	< 5.60	< 5.60	< 6.00	< 6.00	< 6.00	< 6.00
CNCCCNc1ccnc2cc(Cl)ccc12	< 6.00	< 5.60	< 5.60	< 6.00	< 6.00	< 6.00	< 6.00
CC1CCN(Cc2ccc(NC(=O)c3cc4ccc5cccnc5c4[nH]3)cc2)CC1	< 6.00	< 5.60	< 5.60	< 6.00	< 6.00	< 6.00	< 6.00
CSc1ccccc1C(=O)Nc1nc(-c2ccccn2)cs1	< 6.00	< 5.60	< 5.60	< 6.00	< 6.00	< 6.00	< 6.00
COc1ccc(C(C)=O)cc1N1C(=O)C2C(C1=O)C1(c3ccccc3)C(=O)C2(c2ccccc2)C(c2ccc(C)cc2)=C1c1ccc(C)cc1 (configuration not stated)	< 6.00	< 5.60	< 5.60	< 6.00	< 6.00	< 6.00	< 6.00
